In patent publication US20260092179A1, “GENETICALLY MODIFIED HOST CELLS PRODUCING VIOLACEIN, ANALOGUES, AND DERIVATIVES THEREOF” (OCTARINE BIO APS, priority 2022, published 2026):

What was measured:
[1] = Stability during laundering of dyed fabrics (colour fastness, ΔE); assay type: physicochemical; details: washed at 30° c.
Method: (§1) In order to assess the stability and colour fastness of violacein and violacein derivatives dyed onto fabrics, dyed fabrics were subjected to a number of conditions. Fabrics were dyed according to Example 18 and colour coordinates and colour change before and after exposure to a given condition were determined as described in Example 18. To measure temperature stability, fabrics were incubated in an oven set to 80° c. for 4 h. To measure stability under acid and alkaline conditions, fabrics were fully submerged in water solutions set to pH 8 with NaOH and pH 5 with HCl and incubated at room temperature for 30 minutes. Fabrics were then incubated at 37° c. for 4 h. To measure stability during laundering, fabrics were washed at 30° c. under the “mix” setting of a Siemens IQ300 washing machine, then dried in a Siemens IQ300 dryer until dry. To measure artificial light stability, fabrics were placed under an LED lamp at room temperature for 16 h. To measure UV light stability, fabrics were placed under a UV lamp at room temperature for 1 h.

[2] = UV stability of dyed fabrics (colour fastness, ΔE); assay type: physicochemical; details: for ΔE: before vs after UV lamp, room temperature, 1 h
Method: as §1

[3] = Free radical scavenging ability of dyed Nylon 6,6 fabric (DPPH); assay type: biochemical; details: dyed Nylon 6,6 fabric strip
Method: Violacein is reported as being a potent antioxidant able to effectively scavenge free radicals. […] To test this, 1.5×1.5 cm dyed Nylon 6,6 fabric strips were incubated in the dark at room temperature for 1 h in 5 mL of a 5×10^−5 M DPPH free radical solution in 100% ethanol. Undyed Nylon 6,6 fabric strips were included as a negative control. After 1 h absorbance was measured at 517 nm and % scavenging ability calculated as above.

[4] = UV absorption capability (absorbance maxima, UV-A, UV-B, UV-C absorption) by HPLC; assay type: physicochemical
Method: The software Agilent Openlab CDS Chemstation Rev.
Violacein is reported as being a potent UV absorbent able to effectively absorb UV radiation, however, much less is known about the other violacein derivatives. To investigate the potential of using violacein and violacein derivatives as UV inhibitors and to potentially impart UV protection to fabrics, the UV absorption spectra of each compound was analyzed by HPLC and the total absorption capability at each of the most relevant UV wavelengths quantified.
For the quantification of UV absorption capacity of the compound of interest, a chromatographic separation on the F5 column and a gradient of water/acetonitrile containing 0.05% formic acid was run according to Example 5). […] The compounds were quantified based on the signal at 230 nm, using calibration curves of authentic analytical standards.
The UV absorption capacity is represented in mAU.min/mM. UV-A, UV-B and UV-C represent the most relevant regions where UV protection is required. UV-C is the most harmful type of UV radiation and can be generated by inorganic sources. UV-B radiation predominantly comes from the suns rays and is responsible for sun burn. UV-A radiation is also derived predominantly from the suns rays, and while UV-A radiation is less harmful than UV-B or UV-C but is much more prevalent.

[5] = Acrylic, after test (UV lamp, room temperature, 1 h)
[6] = Bleached cotton, after test (UV lamp, room temperature, 1 h)
[7] = Diacetate, after test (UV lamp, room temperature, 1 h)
[8] = Nylon 6,6, after test (UV lamp, room temperature, 1 h)
[9] = Polyester, after test (UV lamp, room temperature, 1 h)
[10] = Wool, after test (UV lamp, room temperature, 1 h)

**Q.** Which L ([1]; Acrylic, After test) does the source give for `O=C1NC(c2c[nH]c3ccccc23)=C/C1=C1\C(=O)Nc2ccccc21` [deoxyviolacein] here?
**A.** 69.42

**Q.** What about the a ([1]; Acrylic, After test) of the same compound?
**A.** −1.13

**Q.** And the b ([1]; Acrylic, After test)?
**A.** 0.45

**Q.** And the L ([1]; Acrylic, Before test)?
**A.** 60.9

**Q.** What about the a ([1]; Acrylic, Before test) of the same compound?
**A.** 0.39

**Q.** What about the b ([1]; Acrylic, Before test) of the same compound?
**A.** −2.66

**Q.** What about the ΔE ([1]; Acrylic, before and after the stability test) of the same compound?
**A.** 9.20

**Q.** What about the L ([1]; Bleached cotton, After test) of the same compound?
**A.** 69.57

**Q.** And the a ([1]; Bleached cotton, After test)?
**A.** 0.39

**Q.** And the b ([1]; Bleached cotton, After test)?
**A.** −5.93

**Q.** And the L ([1]; Bleached cotton, Before test)?
**A.** 61.14

**Q.** What about the a ([1]; Bleached cotton, Before test) of the same compound?
**A.** 0.73

**Q.** What about the b ([1]; Bleached cotton, Before test) of the same compound?
**A.** −8.03

**Q.** What about the ΔE ([1]; Bleached cotton, before and after the stability test) of the same compound?
**A.** 8.69

**Q.** What about the L ([1]; Diacetate, After test) of the same compound?
**A.** 54.82

**Q.** What about the a ([1]; Diacetate, After test) of the same compound?
**A.** 10.32

**Q.** And the b ([1]; Diacetate, After test)?
**A.** −14.22

**Q.** And the L ([1]; Diacetate, Before test)?
**A.** 50.89

**Q.** And the a ([1]; Diacetate, Before test)?
**A.** 9.08

**Q.** And the b ([1]; Diacetate, Before test)?
**A.** −15.27

**Q.** What about the ΔE ([1]; Diacetate, before and after the stability test) of the same compound?
**A.** 4.25

**Q.** And the L ([1]; Nylon 6,6, After test)?
**A.** 47.79

**Q.** And the a ([1]; Nylon 6,6, After test)?
**A.** 6.03

**Q.** What about the b ([1]; Nylon 6,6, After test) of the same compound?
**A.** −20.63

**Q.** And the L ([1]; Nylon 6,6, Before test)?
**A.** 44.46

**Q.** What about the a ([1]; Nylon 6,6, Before test) of the same compound?
**A.** 6.19

**Q.** And the b ([1]; Nylon 6,6, Before test)?
**A.** −22.02

**Q.** What about the ΔE ([1]; Nylon 6,6, before and after the stability test) of the same compound?
**A.** 3.61

**Q.** What about the L ([1]; Polyester, After test) of the same compound?
**A.** 74.17

**Q.** What about the a ([1]; Polyester, After test) of the same compound?
**A.** −0.99

**Q.** What about the b ([1]; Polyester, After test) of the same compound?
**A.** −0.58

**Q.** And the L ([1]; Polyester, Before test)?
**A.** 64.92

**Q.** What about the a ([1]; Polyester, Before test) of the same compound?
**A.** 1.08

**Q.** And the b ([1]; Polyester, Before test)?
**A.** −5.1

**Q.** What about the ΔE ([1]; Polyester, before and after the stability test) of the same compound?
**A.** 10.50

**Q.** And the L ([1]; Wool, After test)?
**A.** 72.9

**Q.** What about the a ([1]; Wool, After test) of the same compound?
**A.** −0.9

**Q.** And the b ([1]; Wool, After test)?
**A.** 3.2

**Q.** And the L ([1]; Wool, Before test)?
**A.** 63.37

**Q.** What about the a ([1]; Wool, Before test) of the same compound?
**A.** −0.25

**Q.** What about the b ([1]; Wool, Before test) of the same compound?
**A.** −1.82

**Q.** What about the ΔE ([1]; Wool, before and after the stability test) of the same compound?
**A.** 10.79

**Q.** What about the L [2, 5] of the same compound?
**A.** 61.34

**Q.** What about the a [2, 5] of the same compound?
**A.** 2.05

**Q.** And the b [2, 5]?
**A.** −2.89

**Q.** What about the L ([2]; Acrylic, before test) of the same compound?
**A.** 60.15

**Q.** And the a ([2]; Acrylic, before test)?
**A.** 1.07

**Q.** What about the b ([2]; Acrylic, before test) of the same compound?
**A.** −2.07

**Q.** And the ΔE ([2]; Acrylic)?
**A.** 1.75

**Q.** And the L [2, 6]?
**A.** 62.17

**Q.** And the a [2, 6]?
**A.** 1.62

**Q.** And the b [2, 6]?
**A.** −6.68

**Q.** What about the L ([2]; Bleached cotton, before test) of the same compound?
**A.** 61.4

**Q.** What about the a ([2]; Bleached cotton, before test) of the same compound?
**A.** 1.8

**Q.** What about the b ([2]; Bleached cotton, before test) of the same compound?
**A.** −7.92

**Q.** What about the ΔE ([2]; Bleached cotton) of the same compound?
**A.** 1.47

**Q.** What about the L [2, 7] of the same compound?
**A.** 53.68

**Q.** What about the a [2, 7] of the same compound?
**A.** 8.75

**Q.** What about the b [2, 7] of the same compound?
**A.** −10.95

**Q.** What about the L ([2]; Diacetate, before test) of the same compound?
**A.** 52.05

**Q.** And the a ([2]; Diacetate, before test)?
**A.** 9.98

**Q.** What about the b ([2]; Diacetate, before test) of the same compound?
**A.** −14.88

**Q.** And the ΔE ([2]; Diacetate)?
**A.** 4.43

**Q.** And the L [2, 8]?
**A.** 46.19

**Q.** And the a [2, 8]?
**A.** 4.4

**Q.** What about the b [2, 8] of the same compound?
**A.** −19.75

**Q.** What about the L ([2]; Nylon 6,6, before test) of the same compound?
**A.** 45.92

**Q.** What about the a ([2]; Nylon 6,6, before test) of the same compound?
**A.** 4.94

**Q.** What about the b ([2]; Nylon 6,6, before test) of the same compound?
**A.** −21.23

**Q.** What about the ΔE ([2]; Nylon 6,6) of the same compound?
**A.** 1.60

**Q.** And the L [2, 9]?
**A.** 67.09

**Q.** And the a [2, 9]?
**A.** 1.19

**Q.** And the b [2, 9]?
**A.** −3.68

**Q.** What about the L ([2]; Polyester, before test) of the same compound?
**A.** 66.55

**Q.** What about the a ([2]; Polyester, before test) of the same compound?
**A.** 1.03

**Q.** And the b ([2]; Polyester, before test)?
**A.** −2.87

**Q.** What about the ΔE ([2]; Polyester) of the same compound?
**A.** 0.99

**Q.** What about the L [2, 10] of the same compound?
**A.** 67.65

**Q.** What about the a [2, 10] of the same compound?
**A.** 0.75

**Q.** And the b [2, 10]?
**A.** 1.17

**Q.** What about the L ([2]; Wool, before test) of the same compound?
**A.** 65.56

**Q.** What about the a ([2]; Wool, before test) of the same compound?
**A.** 0.65

**Q.** What about the b ([2]; Wool, before test) of the same compound?
**A.** 0.31

**Q.** And the ΔE ([2]; Wool)?
**A.** 2.26

**Q.** And the OD517 ([3]; 1 h in the dark in 5×10^−5 M DPPH in 100% ethanol)?
**A.** 1.43

**Q.** What about the Scavenging ability % ([3]; 1 h in the dark in 5×10^−5 M DPPH, vs undyed control) of the same compound?
**A.** 37.05%

**Q.** And the “UV absorption capability in the UV-C region” value ([4]; 245 nm)?
**A.** particularly high

**Q.** And the “Total UV absorption UV C (245 nm)” value ([4]; AUC of HPLC peak at 245 nm per mM)?
**A.** 9251.6 (mAU · min)/mM

**Q.** What about the “Total UV absorption UV B (305 nm)” value ([4]; AUC of HPLC peak at 305 nm per mM) of the same compound?
**A.** 0 (mAU · min)/mM

**Q.** What about the “Total UV absorption UV A (360 nm)” value ([4]; AUC of HPLC peak at 360 nm per mM) of the same compound?
**A.** 702.8 (mAU · min)/mM
